Data taken from ChEMBL document CHEMBL2040759, “Design, synthesis and anticancer activity of nitric oxide donating/chalcone hybrids” (2012).

Experiments:
Type in all cases: functional
[1] = system: NCI-H322M; assay: Growth inhibition of human NCI-H322M cells after 48 hrs by SRB assay
[2] = system: SNB-19; assay: Growth inhibition of human SNB19 cells after 48 hrs by SRB assay; conditions: SNB-19, 48 h
[3] = system: MOLT-4; assay: Growth inhibition of human MOLT4 cells after 48 hrs by SRB assay; conditions: MOLT-4, 48 h
[4] = system: RXF 393; assay: Growth inhibition of human RXF393 cells after 48 hrs by SRB assay; conditions: RXF 393, 48 h
[5] = system: SK-MEL-28; assay: Growth inhibition of human SK-MEL-28 cells after 48 hrs by SRB assay; conditions: SK-MEL-28, 48 h
[6] = system: A498; assay: Growth inhibition of human A498 cells after 48 hrs by SRB assay; conditions: A498, 48 h
[7] = system: SNB-75; assay: Growth inhibition of human SNB75 cells after 48 hrs by SRB assay; conditions: SNB-75, 48 h
[8] = system: T47D; assay: Growth inhibition of human T47D cells after 48 hrs by SRB assay
[9] = system: OVCAR-3; assay: Growth inhibition of human OVCAR3 cells after 48 hrs by SRB assay; conditions: OVCAR-3, 48 h
[10] = system: SK-OV-3; assay: Growth inhibition of human SKOV3 cells after 48 hrs by SRB assay; conditions: SK-OV-3, 48 h
[11] = system: SF-539; assay: Growth inhibition of human SF539 cells after 48 hrs by SRB assay; conditions: SF-539, 48 h
[12] = system: NCI-H460; assay: Growth inhibition of human NCI-H460 cells after 48 hrs by SRB assay; conditions: NCI-H460, 48 h
[13] = system: M14; assay: Growth inhibition of human M14 cells after 48 hrs by SRB assay; conditions: M14, 48 h
[14] = system: HOP-92; assay: Growth inhibition of human HOP92 cells after 48 hrs by SRB assay; conditions: HOP-92, 48 h
[15] = read-out: LC50 (the source's name)

For O=C(CO[N+](=O)[O-])Nc1ccc(C(=O)/C=C/c2ccc(Cl)cc2)cc1, the GI50 [1] was 10.3 µM, the TGI [1] was 22.6 µM and the CC50 [1, 15] was 49.6 µM. It also gave a GI50 [2] of 4.11 µM, a TGI [2] of 18.4 µM and a CC50 [2, 15] of 64 µM. For the same compound, the GI50 [3] was 4.68 µM, the TGI [3] was 69.4 µM and the CC50 [3, 15] was greater than 100 µM. It also gave a GI50 [4] of 4.82 µM, a TGI [4] of 17.8 µM and a CC50 [4, 15] of 48.5 µM. For the same compound, the GI50 [5] was 4.96 µM, the TGI [5] was 18.1 µM and the CC50 [5, 15] was 49.5 µM. The GI50 [6] was 15.4 µM, the TGI [6] was 54.9 µM and the CC50 [6, 15] was greater than 100 µM. It also gave a GI50 [7] of 3.19 µM, a TGI [7] of 17.6 µM and a CC50 [7, 15] of 47.6 µM. For the same compound, the GI50 [8] was 3.26 µM, the TGI [8] was 14.9 µM and the CC50 [8, 15] was 58.3 µM. For the same compound, the GI50 [9] was 2.22 µM, the TGI [9] was 6.55 µM and the CC50 [9, 15] was 23.9 µM. For the same compound, the GI50 [10] was 10.1 µM, the TGI [10] was 65.9 µM and the CC50 [10, 15] was greater than 100 µM. It also gave a GI50 [11] of 2.52 µM, a TGI [11] of 8.82 µM and a CC50 [11, 15] of 42.9 µM. The GI50 [12] was 12.7 µM, the TGI [12] was 54.9 µM and the CC50 [12, 15] was greater than 100 µM. It also gave a GI50 [13] of 2.05 µM, a TGI [13] of 4.96 µM and a CC50 [13, 15] of 17.9 µM. It also gave a GI50 [14] of 2.95 µM, a TGI [14] of 15.2 µM and a CC50 [14, 15] of 53.2 µM.
